Data taken from ChEMBL document CHEMBL1201862, “PubChem BioAssay data set” (2004).
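Method: 48-hour compound exposure of cells in 96-well plates, five concentrations, linear interpolation of endpoints. GI50: concentration for 50% inhibition of growth.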 Activity calls are given as the source filed them. Cut-off read from the data, not from the text of the source: active = GI50 up to about 1.1 µM and inactive = higher.

Key:
Experiment in all cases: NCI-60 cell line screen, 48 h
786-0 = tested on: 786-0
A498 = tested on: A498
A549 = tested on: A549
ACHN = tested on: ACHN
BT-549 = tested on: BT-549
CAKI-1 = tested on: CAKI-1
CCRF-CEM = tested on: CCRF-CEM
COLO 205 = tested on: COLO 205
DU-145 = tested on: DU-145
EKVX = tested on: EKVX
HCC 2998 = tested on: HCC 2998
HCT-116 = tested on: HCT-116
HCT-15 = tested on: HCT-15
HL-60 = tested on: HL-60
HOP-92 = tested on: HOP-92
HT-29 = tested on: HT-29
Hs-578T = tested on: Hs-578T
IGROV-1 = tested on: IGROV-1
K562 = tested on: K562
KM12 = tested on: KM12
LOX IMVI = tested on: LOX IMVI
M14 = tested on: M14
MDA-MB-231 = tested on: MDA-MB-231
MDA-MB-435 = tested on: MDA-MB-435
MDA-N = tested on: MDA-N
MOLT-4 = tested on: MOLT-4
Malme-3M = tested on: Malme-3M
NCI-H226 = tested on: NCI-H226
NCI-H23 = tested on: NCI-H23
NCI-H460 = tested on: NCI-H460
NCI-H522 = tested on: NCI-H522
NCI/ADR-RES = tested on: NCI/ADR-RES
OVCAR-3 = tested on: OVCAR-3
OVCAR-4 = tested on: OVCAR-4
OVCAR-5 = tested on: OVCAR-5
OVCAR-8 = tested on: OVCAR-8
PC-3 = tested on: PC-3
RPMI-8226 = tested on: RPMI-8226
RXF 393 = tested on: RXF 393
SF-268 = tested on: SF-268
SF-295 = tested on: SF-295
SF-539 = tested on: SF-539
SK-MEL-28 = tested on: SK-MEL-28
SK-MEL-2 = tested on: SK-MEL-2
SK-MEL-5 = tested on: SK-MEL-5
SK-OV-3 = tested on: SK-OV-3
SN12C = tested on: SN12C
SNB-19 = tested on: SNB-19
SNB-75 = tested on: SNB-75
SR = tested on: SR
SW-620 = tested on: SW-620
T47D = tested on: T47D
TK-10 = tested on: TK-10
U-251 = tested on: U-251
UACC-257 = tested on: UACC-257
UACC-62 = tested on: UACC-62
UO-31 = tested on: UO-31
HOP-62 = tested on: HOP-62
MCF7 = tested on: MCF7

`COC(=O)C1=C(O)CCCC(CCC(C)=O)=C1` was tested, and the GI50 (786-0) was 26.9 µM (inactive), the GI50 (A498) was > 100 µM (inactive) and the GI50 (A549) was 95.3 µM (inactive). The GI50 (ACHN) was 32.4 µM (inactive), the GI50 (BT-549) was > 100 µM (inactive) and the GI50 (CAKI-1) was 47.6 µM (inactive). For the same molecule, the GI50 (CCRF-CEM) was 9.71 µM (inactive), the GI50 (COLO 205) was 20.5 µM (inactive) and the GI50 (DU-145) was 41.2 µM (inactive). The GI50 (EKVX) was 83.2 µM (inactive), the GI50 (HCC 2998) was > 100 µM (inactive) and the GI50 (HCT-116) was 17.5 µM (inactive). For the same molecule, the GI50 (HCT-15) was 39.3 µM, the GI50 (HL-60) was 3.99 µM (inactive) and the GI50 (HOP-92) was 28.9 µM (inactive). For the same molecule, the GI50 (HT-29) was 57.4 µM (inactive), the GI50 (Hs-578T) was > 100 µM (inactive) and the GI50 (IGROV-1) was 41.2 µM (inactive). The GI50 (K562) was 31.3 µM (inactive), the GI50 (KM12) was 80.2 µM (inactive) and the GI50 (LOX IMVI) was 38.2 µM (inactive). For the same molecule, the GI50 (M14) was 47 µM (inactive), the GI50 (MDA-MB-231) was 73.8 µM (inactive) and the GI50 (MDA-MB-435) was 69.5 µM (inactive). For the same molecule, the GI50 (MDA-N) was 31.9 µM (inactive), the GI50 (MOLT-4) was 36.5 µM (inactive) and the GI50 (Malme-3M) was 41.3 µM (inactive). The GI50 (NCI-H226) was > 100 µM (inactive), the GI50 (NCI-H23) was 94.4 µM (inactive) and the GI50 (NCI-H460) was 30.7 µM (inactive). For the same molecule, the GI50 (NCI-H522) was 12.5 µM (inactive), the GI50 (NCI/ADR-RES) was > 100 µM (inactive) and the GI50 (OVCAR-3) was 48.8 µM (inactive). For the same molecule, the GI50 (OVCAR-4) was 46.9 µM (inactive), the GI50 (OVCAR-5) was > 100 µM (inactive) and the GI50 (OVCAR-8) was 56.5 µM (inactive). For the same molecule, the GI50 (PC-3) was > 100 µM (inactive), the GI50 (RPMI-8226) was 29.4 µM (inactive) and the GI50 (RXF 393) was 33.4 µM (inactive). The GI50 (SF-268) was > 100 µM (inactive), the GI50 (SF-295) was > 100 µM (inactive) and the GI50 (SF-539) was 22.2 µM (inactive). For the same molecule, the GI50 (SK-MEL-28) was > 100 µM (inactive), the GI50 (SK-MEL-2) was > 100 µM (inactive) and the GI50 (SK-MEL-5) was > 100 µM (inactive). The GI50 (SK-OV-3) was > 100 µM (inactive), the GI50 (SN12C) was 41 µM (inactive) and the GI50 (SNB-19) was > 100 µM (inactive). The GI50 (SNB-75) was 76.6 µM (inactive), the GI50 (SR) was 21.8 µM (inactive) and the GI50 (SW-620) was 31.6 µM (inactive). For the same molecule, the GI50 (T47D) was 35.6 µM (inactive), the GI50 (TK-10) was > 100 µM (inactive) and the GI50 (U-251) was 43.2 µM (inactive). For the same molecule, the GI50 (UACC-257) was 98.4 µM (inactive), the GI50 (UACC-62) was 46 µM (inactive) and the GI50 (UO-31) was 39.9 µM (inactive).
`CC(C)C1=C(O)C(=O)C2=C(C1=O)C(OC=O)C(O)C1C(C)(C)CCCC21C` (centres undefined) was tested, and the GI50 (786-0) was 4.09 µM (inactive), the GI50 (A498) was 14.8 µM (inactive) and the GI50 (A549) was 14.7 µM (inactive). The GI50 (ACHN) was 3.87 µM (inactive), the GI50 (BT-549) was 8.36 µM (inactive) and the GI50 (CAKI-1) was 4.04 µM (inactive). The GI50 (CCRF-CEM) was 3.27 µM (inactive), the GI50 (COLO 205) was 3.54 µM (inactive) and the GI50 (DU-145) was 5.06 µM (inactive). For the same molecule, the GI50 (EKVX) was 10.1 µM (inactive), the GI50 (HCC 2998) was 6.82 µM (inactive) and the GI50 (HCT-116) was 7.73 µM (inactive). The GI50 (HCT-15) was 4.04 µM, the GI50 (HL-60) was 3.56 µM (inactive) and the GI50 (HOP-62) was 37.6 µM (inactive). The GI50 (HOP-92) was 7.46 µM (inactive), the GI50 (HT-29) was 11.2 µM (inactive) and the GI50 (Hs-578T) was 8.51 µM (inactive). The GI50 (IGROV-1) was 10.3 µM (inactive), the GI50 (K562) was 6.35 µM (inactive) and the GI50 (KM12) was 12 µM (inactive). For the same molecule, the GI50 (LOX IMVI) was 3.33 µM (inactive), the GI50 (M14) was 11.9 µM (inactive) and the GI50 (MCF7) was 11.4 µM (inactive). For the same molecule, the GI50 (MDA-MB-231) was 5.79 µM (inactive), the GI50 (MDA-MB-435) was 2.73 µM (inactive) and the GI50 (MDA-N) was 7.31 µM (inactive). The GI50 (MOLT-4) was 2.25 µM (inactive), the GI50 (Malme-3M) was 7.08 µM (inactive) and the GI50 (NCI-H226) was 5.08 µM (inactive). The GI50 (NCI-H23) was 7 µM (inactive), the GI50 (NCI-H460) was 3.22 µM (inactive) and the GI50 (NCI-H522) was 10.8 µM (inactive). The GI50 (OVCAR-3) was 12.1 µM (inactive), the GI50 (OVCAR-4) was 10.2 µM (inactive) and the GI50 (OVCAR-5) was 15.8 µM (inactive). The GI50 (OVCAR-8) was 7.29 µM (inactive), the GI50 (PC-3) was 11.2 µM (inactive) and the GI50 (RPMI-8226) was 2.66 µM (inactive). The GI50 (RXF 393) was 6.82 µM (inactive), the GI50 (SF-268) was 10.5 µM (inactive) and the GI50 (SF-295) was 14.2 µM (inactive). The GI50 (SF-539) was 13.7 µM (inactive), the GI50 (SK-MEL-28) was 3.13 µM (inactive) and the GI50 (SK-MEL-2) was 12.1 µM (inactive). For the same molecule, the GI50 (SK-MEL-5) was 3.7 µM (inactive), the GI50 (SK-OV-3) was 13.4 µM (inactive) and the GI50 (SN12C) was 10.1 µM (inactive). For the same molecule, the GI50 (SNB-19) was 13.4 µM (inactive), the GI50 (SNB-75) was 10.8 µM (inactive) and the GI50 (SR) was 3 µM (inactive). For the same molecule, the GI50 (SW-620) was 3.1 µM (inactive), the GI50 (T47D) was 8.24 µM (inactive) and the GI50 (TK-10) was 13.4 µM (inactive). The GI50 (U-251) was 4.28 µM (inactive), the GI50 (UACC-257) was 9.1 µM (inactive) and the GI50 (UACC-62) was 6.19 µM (inactive). For the same molecule, the GI50 (UO-31) was 5.82 µM (inactive).
In the case of `O=C1c2c(O)cc(O)cc2OC(c2ccc(O)cc2O)C1O` (centres undefined), the GI50 (A549) was > 100 µM (inactive), the GI50 (BT-549) was > 100 µM (inactive) and the GI50 (CAKI-1) was > 100 µM (inactive). For the same molecule, the GI50 (DU-145) was > 100 µM (inactive), the GI50 (EKVX) was > 100 µM (inactive) and the GI50 (Hs-578T) was > 100 µM (inactive). For the same molecule, the GI50 (KM12) was > 100 µM (inactive), the GI50 (M14) was > 100 µM (inactive) and the GI50 (MCF7) was > 100 µM (inactive). For the same molecule, the GI50 (MDA-MB-231) was > 100 µM (inactive), the GI50 (MDA-MB-435) was > 100 µM (inactive) and the GI50 (MDA-N) was > 100 µM (inactive). The GI50 (NCI-H23) was > 100 µM (inactive), the GI50 (NCI-H460) was > 100 µM (inactive) and the GI50 (PC-3) was > 100 µM (inactive). For the same molecule, the GI50 (RXF 393) was > 100 µM (inactive), the GI50 (SF-295) was > 100 µM (inactive) and the GI50 (T47D) was > 100 µM (inactive). For the same molecule, the GI50 (TK-10) was > 100 µM (inactive).
